# According to US6472369B1, “Anticancer compounds and methods” (The Regents of the University of Michigan, priority 1996, dated 2002):
# How the values were obtained:
# [1] = test system: rat metastatic prostate carcinoma MatLyLu (MLL) cells; assay: SU-ECM invasion assay, rat MatLyLu prostate carcinoma cells; type: cell-based; conditions: for inhibition of PHSRN-induced invasion of SU-ECM: serum free media, 100 ng per ml PHSRN, FIG. 7B
# Experimental: Adult Strongylocentrotus purpuratus sea urchins were obtained from Pacific BioMarine, and their embryos were cultured to the early pluteus stage in artificial sea water at 15° C. SU-ECM were prepared from them by treatment with nonionic detergent and strerilized by dilution in the appropriate media.
# Cells were harvested by rinsing in Hanks' balanced salt solution, followed by brief treatment with 0.25% trypsin, 0.02% EDTA, and pelleting and resuspension in the appropriate medium with or without 5% FCS at a density of about 50,000 cells per ml. When appropriate, purified bovine plasma fibronectin (Sigma), purified 120 kDa chymotryptic fragment (Gibco BRL), PHSRN (SEQ ID NO:1) or PHSCN (SEQ ID NO:86) peptides (synthesized at the Biomedical Research Core Facilities of the University of Michigan), or GRGDSP (SEQ ID NO:83) or GRGESP (SEQ ID NO:84) peptides (Gibco BRL) were added to the resuspended cells prior to placement of the cells on SU-ECM. In each well of a plate used for an invasion assay, SU-ECM were placed in 0.5 ml of the appropriate medium, and 0.5 ml of the resuspended cells dropped on their exterior surfaces. Invasion assays were incubated 1 to 16 hours prior to assay. If some circumstances, invasion assays were fixed in phosphate-buffered saline (PBS) with 2% formaldehyde for 5 minutes at room temperature, then rinsed into PBS.
# Invasion assays were coded and scored blindly by microscopic examination under phase contrast at 200- and 400-fold magnification. Each cell contacting an SU-ECM was scored for its position relative to the exterior or interior surfaces. A cell was judged to have invaded if it was located on an interior surface below the focal plane passing through the upper surface of the SU-ECM, but above the focal plane passing through its lower surface. The minimum viability of the cells in each assay was always ascertained at the time of assay by determining the fraction of spread, adherent cells on the bottom of each well scored.
# An invasion frequency is defined as the fraction of cells in contact with basement membranes which were located in their interiors at the time of assay. Thus, an invasion frequency of 1 denotes invasion by 100% of the cells in contact with basement membranes. Invasion frequencies were determined multiple times for each cell type assayed. For each type of cell assayed the mean and standard deviation of the invasion frequencies were calculated.
# The result of adding a varying concentration of the PHSCN (SEQ ID NO:86) peptide to PHSRN-induced (SEQ ID NO:1) MLL cells in serum free media is shown in FIG. 7B, where 100 ng per ml of PHSRN (SEQ ID NO:1) was used to induce invasion.
# The procedure described in Example 10, was employed using SU-ECM substrates in 10% FCS and PHS(hC)N (SEQ ID NO:85) instead of PHSCN (SEQ ID NO:86). The result of adding varying concentrations of the PHS(hC)N (SEQ ID NO:85) peptide to serum-induced MLL cells indicates this peptide also has an inhibitory affect on cell invasion (see FIG. 8).
# [2] = test system: MatLyLu (MLL) tumors; assay: MLL prostate tumor growth and metastasis in rats, treatment begun with cell injection (Example 12); type: in vivo, Copenhagen rats
# Experimental: In the first part of this example, four Copenhagen rats were injected with 500,000 MatLyLu (MLL) cells subcutaneously in the thigh. Two of these rats also received 1 mg of the PHSCN (SEQ ID NO:86) peptide along with the injected MLL cells, and thereafter received 1 mg of the PHSCN (SEQ ID NO:86) peptide injected in their tail vein three time per week for two weeks. The other two injected rats were left untreated. Tumor sizes were measured with calipers on day 14, and the tumors in the untreated rats were removed. […] It is possible that the ability of the PHSCN (SEQ ID NO:86) peptide to slow tumor growth is due to its inhibition of tumor invasion by normal endothelial cells, an anti-angiogenic effect.
# Two weeks after the size of the tumors were measured, the rats were sacrificed and the mean number of lung metastases was determined at 10-fold magnification. The mean number of lung metastases in the untreated mice (MLL only) was nearly 35 in spite of the fact that the initial prostate tumors had been removed when their size was measured. The mean number of lung metastases in the treated mice (MLL +PHSCN (SEQ ID NO:86)) was less than 5, even though the initial prostate tumors were never removed because they were too small. […] In this manner, the PHSCN (SEQ ID NO:86) peptide provides effective in vivo therapy for cancer by preventing the lethal effects of tumor cell growth and metastasis.
# [3] = test system: MatLyLu (MLL) tumors; assay: MLL prostate tumor growth and metastasis in rats, treatment begun after 24 hours (Example 13); type: in vivo, Copenhagen rats
# Experimental: In the first part of this example, 20 Copenhagen rats were injected with 500,000 MatLyuLu (MLL) cells subcutaneously in the thigh. To more closely approximate a real clinical situation, PHSCN (SEQ ID NO:86) peptide treatment of 10 of these rats was initiated after 24 hours, instead of immediately. The 10 treated rats (MLL/PHSCN (SEQ ID NO:86)) received a total of 5 i.v. injections of 1 mg of the PHSCN (SEQ ID NO:86) peptide through the tail vein over two weeks. Tumor sizes were measured with calipers on day 14, and the tumors in the untreated rats were removed. Since the injected tumors in the MLL/PHSCN (SEQ ID NO:86) rats were still small, they were retained in the rats for another 7 to 9 days following the last PHSCN (SEQ ID NO:86) injection. At this time, their sizes were all greater than 2 cm, and they were also removed.
# In the second part of this example, the MLL/PHSCN (SEQ ID NO:86) rats received 2 more i.v. doses of the PHSCN (SEQ ID NO:86) peptide prior to sacrifice. Ten days after the sizes of the injected primary tumors were determined, all the rats in the two groups (MLL only and MLL/PHSCN (SEQ ID NO:86)) were sacrificed, and the number of lung metastases was determined at 7.5-fold magnification.
# The 20 rats described in parts one and two of this example were also examined for metastatic tissues in […]. All of these metastases were dissected and weighed. FIG. 10C plots the mean masses of intraperitoneal metastases (grams) for the two groups of 10 rats. […] This may be due to the anti-angiogenic effect of the PHSCN (SEQ ID NO:86) peptide, as described in part one of this example. In this manner, the PHSCN (SEQ ID NO:86) peptide maybe an effective anti-metastatic, growth-inhibiting chemotherapeutic agent for use in the treatment of cancer.
substance,measurement,setting,value
Pro-His-Ser-Cys-Asn (PHSCN),inhibition of PHSRN-induced invasion of SU-ECM,[1]; higher concentrations,almost complete inhibition
same,inhibition of PHSRN-induced invasion of SU-ECM,[1]; low concentrations,substantial inhibitory affect
same,inhibition of serum-induced invasion of SU-ECM,"[1]; serum-induced, I microgram per ml peptide, FIG. 7A",complete inhibition of invasion
same,"growth of injected MLL tumors (tumor size, calipers)","[2]; day 14, 1 mg with cells, then 1 mg tail vein three times per week for two weeks, FIG. 9A",significantly slows the growth
same,mean number of lung metastases,"[2]; two weeks after tumor measurement, 10-fold magnification, primary tumors not removed, FIG. 9B",less than 5
same,tumor size,[3]; 7 to 9 days following the last PHSCN injection,greater than 2 cm
same,mean numbers of lung metastases,"[3]; compared to untreated rats, 7.5-fold magnification, ten days after tumor sizing, FIG. 10B",significant reduction
same,mean masses of intraperitoneal (lymphatic) metastases,"[3]; compared to untreated rats, FIG. 10C",significant reduction
same,"growth of rat prostate cancer tumors (tumor size, calipers)","[3]; day 14, 5 i.v. injections of 1 mg over two weeks, started after 24 hours, FIG. 10A",substantially slows the growth
